From US20150065494A1, “AMINOSTYRYLBENZOFURAN DERIVATIVES AS INHIBITORS AGAINST BETA-AMYLOID FIBRIL FORMATION, AND PHARMACEUTICAL COMPOSITION COMPRISING SAME” (KOREA INSTITUTE OF SCIENCE AND TECHNOLOGY, priority 2012, published 2015) come the findings set out here.

SMILES strings stand for the structures. Structures can show the parent of a compound that is named as a salt. Some results are limits rather than exact numbers.

The target of one series is T1, beta-amyloid 42 (Aβ42) (Homo sapiens, UniProt P05067).
T1 construct: Beta-amyloid 42 (Aβ42) was dissolved in dimethylsulfoxide (DMSO) to form a 250 mM Aβ42 stock solution
T1 sequence (P05067 672-713 limits assumed): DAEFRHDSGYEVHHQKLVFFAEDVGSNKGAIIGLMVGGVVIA
The series is described as follows: Inhibitory effect on the formation of beta-amyloid fibrils in vitro (ThT fluorescence assay). It is filed as biochemical. The note with it: 10 μM compound; 25 μM Aβ42; ThT fluorescence. The procedure:
Beta-amyloid 42 (Aβ42) was dissolved in dimethylsulfoxide (DMSO) to form a […] Aβ42 stock solution. In addition, ThT (thioflavin T) was dissolved in distilled water to obtain a concentration of 1 mM and subsequently diluted with 50 mM glycin buffer (pH 8.5) to yield a 5 μM ThT stock solution. 45 μL of PBS (phosphate buffer saline, pH 7.4) was added to each of a 96-well fluorescence microplate (white, F-bottom). 5 μL of the 250 μM Aβ42 stock solution was added to each well. The final concentration of each compound obtained in Examples was in a range of 10 to 0.001 μM by adding 2 μL of a solution, which was prepared by dissolving the subject compounds obtained in Examples in DMSO, to each well. At this time, the final concentration of Aβ42 in each well was 25 μM. The plate was then incubated for 1 hr at room temperature, and 150 μL of the 5 μM ThT stock solution was added to each well.
The fluorescence intensity of each well was determined with the multi-label fluorescence counter (LS-55 Luminescence spectrometer: Perkin Elmer) at an excitation wavelength of 450 nm (excitation slit width: 10 nm) and an emission wavelength of 482 nm (emission slit width: 10 nm), while adjusting counting time to 1 second. The control group was prepared by adding PBS solution, Aβ42 and DMSO, without adding the inventive compound prepared above. A percent inhibition on the formation of beta-amyloid fibrils was calculated in accordance with the following equation, and IC50 was calculated by using GraphPad Prism version 4.03 Program.
% Inhibition=[1−(C−D)/(A−B)]×100
A (control group)=fluorescence intensity in a group treated with PBS solution, Aβ42 and DMSO
B (blank)=fluorescence intensity in a group treated with PBS solution and DMSO
C (experimental group)=fluorescence intensity in a group treated with PBS solution, Aβ42, the inventive compound and DMSO
D (compensation value to the experimental group) =fluorescence intensity in a group treated with PBS solution, the inventive compound and DMSO

Series [1] has as its target hERG potassium ion channel (Homo sapiens, UniProt Q12809). Kind of series: Inhibitory effect of hERG potassium ion channel (whole-cell patch clamp, HEK-hERG cell line). It is filed as cell-based. The protocol:
A HEK-hERG cell line (IonGate Biosciences, Frankfrut, Germany) which stably expresses hERG was cultured in a DMEM (Dulbecco's modified Eagle's Medium, Sigma Co., St. Louis, Mo., USA) supplemented with 10% fetal bovine serum (FBS, Cambrex, Walkesville, Md., USA) and 0.5 mg/mL zeocin (Invitrogen, Carlsbad, Calif., USA). The cell line was subcultured for 5 days after culture when 80% confluency was reached.
A solution within an electrode used to measure the potassium ion current is composed of 115 mM K-aspartate, 20 mM KCl, 10 mM EGTA, 10 mM HEPES, 2.5 mM tris-phosphocreatine, 0.1 mM Na2GTP and 5 mM MgCl2 (pH 7.2, 290 mOsm/Kg H2O). A solution for an extracellular perfusate is composed of 135 mM NaCl, 5 mM KCl, 1 mM MgCl2, 2 mM CaCl2, 10 mM glucose and 10 mM HEPES (pH 7.2, 300 mOsm/Kg H2O). […]
Potassium ion current was measured by using EPC10 (Instrutech Co., NY, USA) patch clamp amplifier in accordance with the conventional whole-cell patch clamp method. […] The membrane capacitance and series resistance of cell membrane were calibrated by 80% or more and potassium ion current was measured at a sampling rate of 2 kHz and a low-pass filter of 2 kHz (−3 dB; 8-pole Bassel filter). […]
The results were analyzed by using Pulse/Pulsefit (v9.0, HEKA Elektronik, Lambrecht, Germany) and Igor macro. […]

Sequence of hERG potassium ion channel (Q12809 whole entry): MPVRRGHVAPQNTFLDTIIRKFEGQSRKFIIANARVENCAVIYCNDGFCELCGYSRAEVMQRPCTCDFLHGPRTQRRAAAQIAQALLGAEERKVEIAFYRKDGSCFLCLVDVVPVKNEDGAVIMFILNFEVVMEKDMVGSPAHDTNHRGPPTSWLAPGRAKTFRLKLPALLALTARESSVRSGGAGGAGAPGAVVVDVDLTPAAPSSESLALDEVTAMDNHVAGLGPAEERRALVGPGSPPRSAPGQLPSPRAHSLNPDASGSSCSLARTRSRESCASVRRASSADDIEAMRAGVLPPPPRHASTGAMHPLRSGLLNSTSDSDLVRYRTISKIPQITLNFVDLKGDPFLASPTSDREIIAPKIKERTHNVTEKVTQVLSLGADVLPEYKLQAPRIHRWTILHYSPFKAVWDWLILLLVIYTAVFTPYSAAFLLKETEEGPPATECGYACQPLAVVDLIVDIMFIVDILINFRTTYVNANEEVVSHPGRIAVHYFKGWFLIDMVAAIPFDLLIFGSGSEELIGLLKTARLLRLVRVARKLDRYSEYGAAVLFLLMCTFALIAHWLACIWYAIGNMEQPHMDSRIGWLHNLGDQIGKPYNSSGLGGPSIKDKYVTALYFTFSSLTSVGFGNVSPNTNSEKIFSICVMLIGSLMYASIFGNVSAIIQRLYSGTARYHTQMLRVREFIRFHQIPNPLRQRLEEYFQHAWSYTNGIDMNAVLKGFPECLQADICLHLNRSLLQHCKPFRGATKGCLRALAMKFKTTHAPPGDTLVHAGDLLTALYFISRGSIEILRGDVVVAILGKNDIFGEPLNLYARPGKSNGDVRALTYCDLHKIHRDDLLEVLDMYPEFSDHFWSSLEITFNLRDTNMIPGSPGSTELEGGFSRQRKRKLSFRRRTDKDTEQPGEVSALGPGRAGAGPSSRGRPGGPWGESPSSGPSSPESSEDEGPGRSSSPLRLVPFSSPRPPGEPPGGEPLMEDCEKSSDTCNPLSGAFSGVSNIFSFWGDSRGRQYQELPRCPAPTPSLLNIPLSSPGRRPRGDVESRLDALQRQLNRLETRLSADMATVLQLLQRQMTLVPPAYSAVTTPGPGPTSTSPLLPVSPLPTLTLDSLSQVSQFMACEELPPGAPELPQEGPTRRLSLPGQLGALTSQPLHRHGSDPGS

Take `CN(C)CCOc1ccc2cc(/C=C/c3ccc(N(C)C)cc3)oc2c1` [Example 22, (E)-6-(2-dimethylaminoethoxy)-2-(4-dimethylaminostyryl)benzofuran hydrochloride]: the inhibition at 10 µM on beta-amyloid 42 (Aβ42) was at least 70%. For the same compound, in series [1] (HEK-hERG cells, whole-cell patch clamp, mean ± standard error), the IC50 was found to be 52.1 ± 3.68 µM.

`CN(C)CCOc1ccc2cc(/C=C/c3ccc(N(C)C)cc3)oc2c1` [Example 2, (E)-6-(2-dimethylaminoethoxy)-2-(4-dimethylaminostyryl)benzofuran]: the “inhibitory efficacy on hERG potassium ion channel” value in series [1] (result in words) is reported as “insignificant inhibitory efficacy”.
